Among the data in PubChem BioAssay (NCI) are GI50 and TGI values, retold here.

Among the test systems are BT-549 breast; LXFL 529 NSCLC; KM20L2 colon; MDA-N; HOP-18 NSCLC; RXF-631 renal.
Assay in all cases: NCI tumour cell line growth inhibition, 48 h

SMILES strings stand for the structures. ≈ marks a conversion by molar mass, not a printed value.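 Tested at 5 concentrations; 48 h exposure; 96-well plates; endpoints linearly interpolated, else capped at highest concentration. GI50 = concentration required for 50% inhibition of growth. TGI is the concentration that stops growth completely.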

For the compound `O=C1NC(SCc2ccc(F)cc2)=N/C1=C/c1cccc(OCc2ccc(Cl)cc2)c1`, in the test on BT-549 breast, the GI50 is 23.4 µM and the TGI was greater than 100 µM.

As for `Cc1cn(Cc2ccccc2CCl)c(=O)n(Cc2ccccc2CCl)c1=O`, in the test with BT-549 breast, the GI50 is 1.85 µM and the TGI came out at 3.52 µM.

For the compound `COc1cc(NC(=O)c2cc(O)c(C/C=C(\C)CCC=C(C)C)c(O)c2)cc2c1O[C@]1(C)CC[C@@H](O)C(C)(C)[C@H]1C2`, in the test on BT-549 breast, the GI50 was 0.841 µM and the TGI was determined as 3.55 µM.

Regarding `O=C(O)c1cc(=O)c2cc(C(=O)c3cccs3)c(Cl)c(Cl)c2o1`, the TGI in the test on LXFL 529 NSCLC and in the test with KM20L2 colon was greater than 100 µM each time.

Regarding `CC1=NN(c2ccccc2)C(=O)C1N=Nc1ccc(S(N)(=O)=O)cc1` (stereo not drawn), the TGI with BT-549 breast and with MDA-N was greater than 100 µM each time.

On to `C=C(C)C(=O)O[C@H]1CC2=CC(CC(C)=C[C@H]3OC(=O)C(=C)C13)OC2=O` (stereo partly drawn), for which the TGI in the test on BT-549 breast is 38.9 µM; in the test on MDA-N, 89.4 µM.

`COC1OC(C(C)O)C2OC(C)(C)OC12` (stereo not drawn): the TGI with BT-549 breast and in the test with MDA-N was greater than 100 µM throughout.

Turning to `CCSC(=O)C1(C)OC2CCCCC2C1=O` (stereo not drawn), the TGI in the test with LXFL 529 NSCLC, in the test with HOP-18 NSCLC and in the test with KM20L2 colon was greater than 100 µM in each case.

For the compound `Cc1ccc(-c2c3c(N)c4c(nc3nc3c2c(C)nn3-c2ccccc2)CCC4)cc1`, in the test on BT-549 breast, the GI50 is 20.7 µM and the TGI is 45.5 µM.

Regarding `[O-][n+]1c2cc(CN3CCOCC3)c(CN3CCOCC3)cc2[n+]([O-])c2c(O)cccc21`, the TGI in the test with LXFL 529 NSCLC was 7.73 µM; with HOP-18 NSCLC, 18.6 µM; in the test with KM20L2 colon it was 15.4 µM; with RXF-631 renal, greater than 55.9 µM.

On to `O=C(O)C1CC2CC(=O)C1C2` (stereo not drawn), for which the TGI with LXFL 529 NSCLC, with HOP-18 NSCLC, with KM20L2 colon and in the test on RXF-631 renal was greater than 100 µM each time.

`CN(C)CC1=Nc2cccc3cccc(c23)N1`: the TGI with BT-549 breast came out at 31.5 µM; in the test on MDA-N it was 35 µM.

`O=C1OC(OC/C(Br)=C(/Br)COC2OC(=O)C(Cl)=C2Cl)C(Cl)=C1Cl` (stereo not drawn) returned a TGI in the test on MDA-N of 21.5 µM.

Turning to `CCCCCCCCCCCCCCCCCc1nnc(N)o1`, the TGI in the test with LXFL 529 NSCLC, in the test on KM20L2 colon and in the test on RXF-631 renal was greater than 100 µM each time.

On to `OC1c2ccccc2C2C(O)c3ccccc3C12` (stereo not drawn), for which the TGI in the test on LXFL 529 NSCLC, in the test with HOP-18 NSCLC, in the test with KM20L2 colon and in the test with RXF-631 renal was greater than 100 µM each time.

Regarding `CN(CCCN(C)CCC1CCCCC1)CCC1CCCCC1`, in the test on BT-549 breast, the GI50 was 2.64 µM and the TGI is 11.1 µM.

For the compound `O=C1COCCN1c1ccc(NCc2cn(C(=O)c3ccc(Cl)cc3)c3ccccc23)cc1`, in the test with BT-549 breast, the GI50 was 4.37 µM and the TGI was found to be 53.7 µM.

Turning to `COC(=O)c1nc(N)nc(C(=O)OC)c1C(=O)c1ccccc1`, the TGI with LXFL 529 NSCLC, with HOP-18 NSCLC, with KM20L2 colon and in the test on RXF-631 renal was greater than 100 µM in each case.

For the compound `Nc1ccc(C2=Nc3ccccc3SC(c3ccccc3O)C2)cc1` (stereo not drawn), the TGI in the test with LXFL 529 NSCLC, in the test on HOP-18 NSCLC, with KM20L2 colon and in the test on RXF-631 renal was greater than 100 µM each time.

For the compound `O=C1NN=CN2C(=O)CCC12` (stereo not drawn), the TGI with LXFL 529 NSCLC, in the test with KM20L2 colon and with RXF-631 renal was greater than 100 µM throughout.

Regarding `O=c1[nH]c2c(c3ccccc13)CCc1ccccc1-2`, the TGI with LXFL 529 NSCLC and with KM20L2 colon was greater than 100 µM in each case.

In the case of `COc1cc(/C=C\c2ccc(Cl)cc2)cc(OC)c1OC`, the TGI with LXFL 529 NSCLC is greater than 95.1 µM; with HOP-18 NSCLC, greater than 100 µM; in the test on KM20L2 colon, 0.372 µM; with RXF-631 renal, greater than 100 µM.

Consider `O=C1NC(c2ccccc2)N=C2Oc3ccccc3C=C12` (stereo not drawn), for which the figures for the TGI in the test with BT-549 breast and with MDA-N were greater than 100 µM and 1.12 µM, respectively.

For the compound `CC(=O)n1c(-c2ccc(Cl)c(Cl)c2)cn(-c2ccc(Cl)cc2)c1=O`, in the test on BT-549 breast, the GI50 was 17 µM and the TGI was found to be 36.6 µM.

For `CC(C)=CCc1cc(C2COc3cc4c(c(O)c3C2=O)C=CC(C)(C)O4)c(O)cc1O` (stereo not drawn), the TGI with BT-549 breast was 33.3 µM; with MDA-N, 27.5 µM.

For the compound `COC(=O)C1=C(c2ccc(Cl)cc2)C(O)N=C(NN)N1` (stereo not drawn), the TGI with LXFL 529 NSCLC, in the test with HOP-18 NSCLC and in the test with RXF-631 renal was greater than 100 µM throughout.

In the case of `COc1ccc2c(c1OC)C(=O)O[C@@H]2[C@H]1c2c(c(Br)c3c(c2OC)OCO3)CCN1C`, in the test with BT-549 breast, the GI50 was greater than 100 µM and the TGI was greater than 100 µM.

Turning to `COC(=O)Nc1nc2ccc(S(=O)(=O)c3ccc(NC(=O)Nc4cc(C(F)(F)F)ccc4F)cc3)cc2[nH]1`, in the test with BT-549 breast, the GI50 was greater than 25 µM and the TGI was greater than 25 µM.

For `CN(C)c1ncnc2c1ccn2C1OC(CO)C(O)C1O` (stereo not drawn), in the test with BT-549 breast, the GI50 was 3.98 µM and the TGI was greater than 100 µM.

Turning to `COc1cc2c(cc1OCCCCCn1c3ccccc3c3ccccc31)N=C[C@@H]1CCCN1C2=O`, in the test with BT-549 breast, the GI50 is 2.03 µM and the TGI is 4.31 µM.

On to `O=c1[nH]nc(-c2ccccc2)c2c(-c3ccccc3)onc12`, for which, in the test with BT-549 breast, the GI50 was 0.506 µM and the TGI was greater than 47.8 µM.

Regarding `CC1CC(=O)c2c(ccc3c2C(=O)c2cccc(O)c2C3=O)C1` (stereo not drawn), the TGI with LXFL 529 NSCLC turned out to be 14.1 µM; with HOP-18 NSCLC it was 21.2 µM; with RXF-631 renal, 29.8 µM.

In the case of `COc1ccc(C=C2C(=O)NC(=O)NC2=O)cc1OCc1ccccc1`, in the test on BT-549 breast, the GI50 is 16.8 µg/mL and the TGI was found to be 43.2 µg/mL. For the same compound, in the test on MDA-N, the GI50 was 14.8 µg/mL (≈ 41.9 µM) and the TGI came out at 32.7 µg/mL.

As to `NS(=O)(=O)c1ccc(N2N=C(c3cccs3)CC2c2ccccc2O)cc1` (stereo not drawn), in the test with BT-549 breast, the GI50 was 2.05 µM and the TGI came out at 9.15 µM.

`CC(=O)O[C@H]1CC[C@@]2(C)C(=C/C(=N\[N+](=O)[O-])[C@H]3C4CCC([C@H](C)CCCC(C)C)[C@@]4(C)CCC32)C1` (stereo partly drawn): the TGI with LXFL 529 NSCLC and in the test with KM20L2 colon was greater than 100 µM in each case.
